Results on 14 compounds are retold here after ChEMBL document CHEMBL1130844, “Synthesis and NK1 receptor antagonistic activity of (+/-)-1-acyl-3-(3,4- dichlorophenyl)-3-[2-(spiro-substituted piperidin-1'-yl)ethyl]piperidines” (Bioorg Med Chem Lett, 1998).

The target in assay [1] is Substance-P receptor (Cavia porcellus, UniProt P30547). Briefly: Neurokinin (NK1) receptor antagonistic activity was evaluated. It counts as functional.
Assay [2] deals with Cavia porcellus. Briefly: Inhibitory activity of substance P-induced bronchoconstriction in guinea pigs upon intravenous administration was evaluated. Type of assay: functional. As to conditions: read-out: ID50 (the source's name).

pIC50: −log10 of the molar value.

Chain of Substance-P receptor (P30547 whole entry): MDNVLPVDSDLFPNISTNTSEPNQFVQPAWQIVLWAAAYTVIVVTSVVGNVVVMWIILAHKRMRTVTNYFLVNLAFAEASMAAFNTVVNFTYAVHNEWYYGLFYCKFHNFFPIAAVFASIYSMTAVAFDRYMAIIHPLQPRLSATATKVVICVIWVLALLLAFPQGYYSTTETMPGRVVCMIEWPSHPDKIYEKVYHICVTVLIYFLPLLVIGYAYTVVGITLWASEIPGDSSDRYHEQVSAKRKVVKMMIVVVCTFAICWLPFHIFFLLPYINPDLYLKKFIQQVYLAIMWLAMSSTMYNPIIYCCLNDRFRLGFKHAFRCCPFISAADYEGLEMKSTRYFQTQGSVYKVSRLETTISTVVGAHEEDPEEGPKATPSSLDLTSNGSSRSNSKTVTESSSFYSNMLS

In general, pIC50 refers to the negative decadic logarithm of the IC50, by convention in mol/L. A high value points to a small IC50. In the case of `CN(CC(CCN1CCC2(CC1)OCc1ccccc12)c1ccc(Cl)c(Cl)c1)C(=O)c1ccccc1` (configuration not stated), the pIC50 in assay [1] was 6.15. The same measure, in the same setting: the figure for `CC(C)Oc1cccc(CC(=O)N2CCCC(CCN3C4CCC3CC3(C4)OCc4ccccc43)(c3ccc(Cl)c(Cl)c3)C2)c1` (configuration not stated) is 6.98; for `CN(CC(CCN1CCC2(CC1)NCCc1ccccc12)c1ccc(Cl)c(Cl)c1)C(=O)c1ccccc1` (configuration not stated) it is 7.24. On the same count and under the same terms, under `CC[N+]1(CCC2(c3ccc(Cl)c(Cl)c3)CCCN(C(=O)Cc3cccc(OC(C)C)c3)C2)CCC2(CC1)NCCc1ccccc12` (configuration not stated) stands 8.32. On the same count and under the same terms, under `CC(C)Oc1cccc(CC(=O)N2CCCC(CCN3CCC4(CC3)NC(=O)Cc3ccccc34)(c3ccc(Cl)c(Cl)c3)C2)c1` (configuration not stated) stands 7.27; under `CC(C)Oc1cccc(CC(=O)N2CCCC(CC[N+]3(C)CCC4(CC3)c3ccccc3C[S+]4[O-])(c3ccc(Cl)c(Cl)c3)C2)c1` (configuration not stated), 8.20. In the case of `CC(C)Oc1cccc(CC(=O)N2CCCC(CC[N+]34CCC(c5ccccc5)(CC3)CC4)(c3ccc(Cl)c(Cl)c3)C2)c1.[Cl-]` (racemic), in assay [2], the ED50 came to 0.019 mg/kg. Also, the pIC50 in assay [1] is 9.51.

In assay [1], `CC(C)Oc1cccc(CC(=O)N2CCCC(CCN3CCC4(CC3)NCCc3ccccc34)(c3ccc(Cl)c(Cl)c3)C2)c1` (configuration not stated) had a pIC50 of 7.51. Same read-out and setting: under `CC(C)Oc1cccc(CC(=O)N2CCCC(CCN3CCC4(CC3)OCc3ccccc34)(c3ccc(Cl)c(Cl)c3)C2)c1` (configuration not stated) stands 7.80; under `CC(C)Oc1cccc(CC(=O)N2CCCC(CC[N+]3(C)CCC4(CC3)NC(=O)Cc3ccccc34)(c3ccc(Cl)c(Cl)c3)C2)c1` (stereo in doubt; 5bb), 7.46; under `CC(C)Oc1cccc(CC(=O)N2CCCC(CCN3CCC4(CC3)c3ccccc3C[S+]4[O-])(c3ccc(Cl)c(Cl)c3)C2)c1` (configuration not stated), 7.74. For `CC(C)Oc1cccc(CC(=O)N2CCCC(CC[N+]3(C)CCC4(CC3)NCCc3ccccc34)(c3ccc(Cl)c(Cl)c3)C2)c1.[I-]` (configuration not stated), the ED50 in assay [2] was 0.049 mg/kg. Besides, the pIC50 in assay [1] was 8.70. On to `CC(C)Oc1cccc(CC(=O)N2CCCC(CC[N+]3(Cc4ccccc4)CCC4(CC3)NCCc3ccccc34)(c3ccc(Cl)c(Cl)c3)C2)c1` (configuration not stated), for which the pIC50 in assay [1] was 7.80.

Consider `CC(C)Oc1cccc(CC(=O)N2CCCC(CC[N+]3(C)CCC4(CC3)NC(=O)Cc3ccccc34)(c3ccc(Cl)c(Cl)c3)C2)c1.[I-]` (stereo in doubt; 5ba), for which the ED50 in assay [2] came to 0.024 mg/kg. This compound also gave a pIC50 in assay [1] of 8.72.
